Data on 14 compounds can be found in paper PMC7012010, “Synthesis and biological evaluation of 2-styrylquinolines as antitumour agents and EGFR kinase inhibitors: molecular docking study” (Journal of Enzyme Inhibition and Medicinal Chemistry, 2017).

≈ marks a conversion by molar mass, not a printed value.

The term IC50 denotes the point on the concentration scale where inhibition reaches its midpoint. As usually defined, the melting point is the temperature, or range, at which the solid turns liquid.

One data set concerns HCT116. The data set is described as follows: MTT antitumour (cytotoxicity) assay, HCT116. The data set is classed as cell-based. To be noted: Homo sapiens, HCT-116, HCT116 cell line, 50% inhibition of tumour cell proliferation, read-out: In vitro cytotoxicity IC50. The method, then:
(§1) The designed compounds were evaluated for their in vitro antitumour effect using the standard MTT method against two human tumour cell lines, namely, HepG2 and HCT116[45–48]. The quantitative evaluation of the cytotoxicity was performed using tetrazolium salt MTT (3-(4,5-dimethyl-2-thiazolyl)-2,5-diphenyl-2 H-tetrazolium bromide) assay. The cytotoxic activity was expressed as the concentration of the compound that caused 50% growth inhibition (IC50, mean ± SEM) compared with the growth of untreated cells.

The subject of the next data set is HepG2. Put plainly: MTT antitumour (cytotoxicity) assay, HepG2. The data set is classed as cell-based. The settings on record: Homo sapiens, HepG2, HepG2 cell line, 50% inhibition of tumour cell proliferation, read-out: In vitro cytotoxicity IC50. On the procedure: as §1
The target in the next data set is EGFR kinase (Homo sapiens, UniProt P00533). The data set is described as follows: ELISA-based EGFR-TK kinase inhibition assay. The settings on record: n = 3, read-out: Enzymatic IC50 toward EGFR kinase. Format: biochemical. The method, then: EGFR kinase activity was determined via enzyme-linked immunosorbent assay (ELISA) in 96-well plates. The EGFR kinase activity for each compound were expressed as IC50 values. Data were represented as mean ± SD from three independent experiments, and differences between groups were considered statistically significant at p < .05.
Chain of EGFR kinase (P00533 25-1210): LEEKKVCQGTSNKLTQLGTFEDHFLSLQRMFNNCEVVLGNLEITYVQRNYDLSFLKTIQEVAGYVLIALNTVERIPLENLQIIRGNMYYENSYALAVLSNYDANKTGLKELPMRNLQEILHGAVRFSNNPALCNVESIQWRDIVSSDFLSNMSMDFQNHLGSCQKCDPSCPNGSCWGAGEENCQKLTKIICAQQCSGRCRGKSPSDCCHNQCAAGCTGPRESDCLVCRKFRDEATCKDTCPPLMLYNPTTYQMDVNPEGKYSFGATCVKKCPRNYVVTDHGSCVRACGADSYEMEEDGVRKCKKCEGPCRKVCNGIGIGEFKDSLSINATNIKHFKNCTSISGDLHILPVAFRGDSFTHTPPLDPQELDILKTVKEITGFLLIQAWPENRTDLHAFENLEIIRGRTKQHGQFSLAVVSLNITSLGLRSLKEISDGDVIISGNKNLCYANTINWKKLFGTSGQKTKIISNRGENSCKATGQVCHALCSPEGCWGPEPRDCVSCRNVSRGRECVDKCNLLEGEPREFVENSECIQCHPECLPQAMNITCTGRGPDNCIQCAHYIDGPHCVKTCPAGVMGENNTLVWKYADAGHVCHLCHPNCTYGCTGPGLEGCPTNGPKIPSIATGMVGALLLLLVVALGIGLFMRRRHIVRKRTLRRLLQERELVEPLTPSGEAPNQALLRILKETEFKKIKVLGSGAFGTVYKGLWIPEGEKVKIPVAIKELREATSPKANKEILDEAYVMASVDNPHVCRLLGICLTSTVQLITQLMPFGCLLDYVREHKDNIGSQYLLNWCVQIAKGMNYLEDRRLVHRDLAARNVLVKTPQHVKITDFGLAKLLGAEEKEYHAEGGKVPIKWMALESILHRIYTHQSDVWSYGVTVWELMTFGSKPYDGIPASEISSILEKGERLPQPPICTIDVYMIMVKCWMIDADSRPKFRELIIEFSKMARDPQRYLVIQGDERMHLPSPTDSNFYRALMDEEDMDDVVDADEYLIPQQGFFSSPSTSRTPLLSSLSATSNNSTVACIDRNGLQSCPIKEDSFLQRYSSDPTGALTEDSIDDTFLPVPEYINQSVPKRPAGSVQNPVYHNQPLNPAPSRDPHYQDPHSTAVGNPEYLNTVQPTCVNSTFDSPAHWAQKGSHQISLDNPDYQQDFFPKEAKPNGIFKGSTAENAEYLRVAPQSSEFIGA
The mechanism of antitumour activity of the target compounds was studied using ELISA-based EGFR-TK assay.
(In general: ELISA stands for enzyme-linked immunosorbent assay.)

As to `CN(C)C/C=C/C(=O)Nc1cc2c(Nc3ccc(F)c(Cl)c3)ncnc2cc1O[C@H]1CCOC1` [Afatinib, afatinib, reference compound], the results for the IC50 in the data set with HCT116 and in the data set with HepG2 were 11.4 ± 1.26 µg/mL (≈ 23.5 µM) and 5.4 ± 0.25 µg/mL (≈ 11.1 µM), respectively.

As for `CN(C)c1ccc(/C=C/c2cc(C(=O)O)c3cc(Br)ccc3n2)cc1` [Compound 3a], the IC50 was 9 ± 0.35 µg/mL (≈ 22.7 µM) with HCT116, 9.8 ± 0.2 µg/mL (≈ 24.7 µM) in the data set on HepG2 and 2.23 µM on EGFR kinase.

With `Cc1ccc2nc(C=Cc3ccc(N(C)C)cc3)cc(C(=O)O)c2c1` [Compound 3b, 2–(4-(Dimethylamino)styryl)-6-methylquinoline-4-carboxylic acid], the melting point is 275 °C. In the data set with HCT116, the IC50 is 14.8 ± 0.89 µg/mL (≈ 44.5 µM). In addition, in the data set on HepG2, the IC50 amounted to 17.2 ± 1.04 µg/mL (≈ 51.7 µM). Moreover, the IC50 at EGFR kinase turned out to be 8.01 µM.

Turning to `CN(C)c1ccc(C=Cc2cc(-c3nnc(N)s3)c3cc(Br)ccc3n2)cc1` [Compound 4a, 5-(6-Bromo-2–(4-(dimethylamino)styryl)quinolin-4-yl)-1,3,4-thiadiazol-2-amine], the melting point is 223 °C. In the data set with HCT116, the IC50 turned out to be 14.2 ± 0.67 µg/mL (≈ 31.4 µM). Also, in the data set on HepG2, the IC50 was 9 ± 0.19 µg/mL (≈ 19.9 µM). For the same compound, the IC50 at EGFR kinase was found to be 8.78 µM.

For `Cc1ccc2nc(C=Cc3ccc(N(C)C)cc3)cc(-c3nnc(N)s3)c2c1` [Compound 4b, 5-(2-(4-(Dimethylamino)styryl)-6-methylquinolin-4-yl)-1,3,4-thiadiazol-2-amine], the melting point is 226 °C. The IC50 in the data set on HCT116 was 8.8 ± 0.26 µg/mL (≈ 22.7 µM). Also, the IC50 in the data set on HepG2 stood at 7.7 ± 0.15 µg/mL (≈ 19.9 µM). In addition, the IC50 at EGFR kinase is 1.11 µM.

In the case of `O=c1[nH]cc(F)c(=O)[nH]1` [Compound 5-FU, 5-fluorouracil, reference compound], the figures for the IC50 in the data set on HCT116 and in the data set with HepG2 were 5.3 ± 0.32 µg/mL (≈ 40.7 µM) and 7.9 ± 0.17 µg/mL (≈ 60.7 µM), respectively.

The compound `CN(C)c1ccc(C=Cc2cc(C(=O)Oc3ccc(C=O)cc3)c3cc(Br)ccc3n2)cc1` [Compound 6a, 4-Formylphenyl 6-bromo-2-(4-(dimethylamino)styryl)quinoline-4-carboxylate] registered a melting point of 242 °C. In the data set on HCT116, the IC50 was 96.6 ± 5.4 µg/mL (≈ 193 µM). In addition, the IC50 in the data set on HepG2 came out at 82.9 ± 4.64 µg/mL (≈ 165 µM).

The compound `Cc1ccc2nc(C=Cc3ccc(N(C)C)cc3)cc(C(=O)Oc3ccc(C=O)cc3)c2c1` [Compound 6b, 4-Formylphenyl 2-(4-(dimethylamino)styryl)-6-methylquinoline-4-carboxylate] showed a melting point of 248 °C. For the same compound, the IC50 with HCT116 was over 100 µg/mL. For the same compound, the IC50 in the data set with HepG2 was over 100 µg/mL.

Consider `CN(C)c1ccc(C=Cc2cc(C(=O)NNc3ccccc3)c3cc(Br)ccc3n2)cc1` [Compound 7a, 6-Bromo-2-(4-(dimethylamino)styryl)-N'-phenylquinoline-4-carbohydrazide], for which the melting point stood at 232 °C. The IC50 with HCT116 is 49.7 ± 3 µg/mL (≈ 102 µM). For the same compound, the IC50 in the data set with HepG2 was 46.1 ± 2.81 µg/mL (≈ 94.6 µM).

On to `Cc1ccc2nc(C=Cc3ccc(N(C)C)cc3)cc(C(=O)NNc3ccccc3)c2c1` [Compound 7b, 2-(4-(Dimethylamino)styryl)-6-methyl-N'-phenylquinoline-4-carbohydrazide], for which the melting point is 228 °C. For the same compound, the IC50 with HCT116 was 61.4 ± 3.76 µg/mL (≈ 145 µM). For the same compound, the IC50 in the data set on HepG2 turned out to be 72.8 ± 3.82 µg/mL (≈ 172 µM).

`CCOC(=O)C(C#N)C(=O)c1cc(C=Cc2ccc(N(C)C)cc2)nc2ccc(Br)cc12` (centres unmarked) [Compound 8a, Ethyl 3-(6-bromo-2-(4-(dimethylamino)styryl)quinolin-4-yl)-2-cyano-3-oxopropanoate] yielded a melting point of over 300 °C. In addition, the IC50 in the data set with HCT116 stood at 16 ± 0.88 µg/mL (≈ 32.5 µM). Also, in the data set on HepG2, the IC50 came to 26.2 ± 1.79 µg/mL (≈ 53.2 µM). The IC50 at EGFR kinase was 16 µM.

Compound `CCOC(=O)C(C#N)C(=O)c1cc(C=Cc2ccc(N(C)C)cc2)nc2ccc(C)cc12` (centres unmarked) [Compound 8b, Ethyl 2-cyano-3-(2-(4-(dimethylamino)styryl)-6-methylquinolin-4-yl)-3-oxopropanoate] returned a melting point of over 300 °C. Moreover, in the data set on HCT116, the IC50 worked out at 52.6 ± 3.92 µg/mL (≈ 123 µM). In addition, the IC50 with HepG2 is 43.7 ± 2.66 µg/mL (≈ 102 µM).

`CC(=O)C(C(C)=O)C(=O)c1cc(C=Cc2ccc(N(C)C)cc2)nc2ccc(Br)cc12` [Compound 9a, 3-(6-Bromo-2-(4-(dimethylamino)styryl)quinoline-4-carbonyl)pentane-2,4-dione] registered a melting point of over 300 °C. Also, the IC50 with HCT116 is 57.3 ± 3.07 µg/mL (≈ 120 µM). In the data set on HepG2, the IC50 is 65.4 ± 3.18 µg/mL (≈ 136 µM).

`CC(=O)C(C(C)=O)C(=O)c1cc(C=Cc2ccc(N(C)C)cc2)nc2ccc(C)cc12` [Compound 9b, 3-(2-(4-(Dimethylamino)styryl)-6-methylquinoline-4-carbonyl)pentane-2,4-dione]: the melting point was over 300 °C. For the same compound, the IC50 in the data set with HCT116 came out at 93.1 ± 5.64 µg/mL (≈ 225 µM). Further, the IC50 in the data set on HepG2 was over 100 µg/mL.
